{
  "source": "patent US6596284B1",
  "about": "“Treating eczema with a combination of isotonic saline ocean® and nasal mast cell stabilizers” (priority 2002, dated 2003)",
  "test": "Topical application of cromolyn sodium in OCEAN at the affected site in twenty adult subjects with atopic eczema",
  "format": "in vivo, human",
  "conditions": "300 mg/45 ml OCEAN (0.67%), applied every 4 to 6 hours at the affected site, after two weeks",
  "protocol": "A group of twenty adult subjects suffering from atopic eczema were asked to apply cromolyn sodium (at a concentration of 300 mg/45 ml OCEAN® giving a concentration of 0.67%) every 4 to 6 hours at the affected site, and instructed to rub the solution gently into the lesion.",
  "note": "Where a name gives a salt, the structure may show the parent alone.",
  "data": [
    {"smiles": "O=C(O)c1cc(=O)c2c(OCC(O)COc3cccc4oc(C(=O)O)cc(=O)c34)cccc2o1", "note": "[cromolyn sodium, disodium salt of 1,3-bis-(2-carboxy-chromone-5″yloxy)2-hydroxy propane]", "values": [
      {"measurement": "subjects who experienced relief from the symptoms", "value": "19 of the 20"}
    ]}
  ]
}
